The values that follow come from patent US6897239B1, “Use of misoprostol and/or metabolites of misoprostol for treating sexual dysfunction in women” (Lavipharm S.A., priority 1998, dated 2005).

Molecules are shown by their SMILES. Like-named read-outs stand apart in the source and are kept apart here.

Data set [1] deals with women with sexual dysfunction. Kind of data set: external application of misoprostol to the clitoris or/and to the vagina. The conditions noted are these: for local vasodilation after external application: used externally to the clitoris or/and to the vagina. In kind it is in vivo. An excerpt:
Because of the local vasodilation is caused tumescence of the clitoris, intence bleeding of the vagina and feeling of sexual desire. Simultaneously, in women with anorgasmia of various causes, promote after masturbation or sexual intercourse, the coming of orgasm.
Method of application: 0.1 (or more, depending on responce) are applied to the clitoris or/and to the vagina.
(§1) As had already been mentioned, misoprostol is an extremely hydrophile molecule compared with other prostaglandins of E1 series (e.g. with alprostadil which can be dissolved in alcohol but her solubility in water is only 8000 mcg/100 ml at 35° C.).

Data set [2] can be described thus: solubility in water. The format is physicochemical. The procedure: as §1
Data set [3] concerns patients. As to conditions: cited from earlier work.
The conditions of data set [4]: at 35° C.; cited from earlier work.

In the case of `CCCCC(C)(O)C/C=C/[C@H]1[C@H](O)CC(=O)[C@@H]1CCCCCCC(=O)OC` (mixture of isomers) [Misoprostol, (11a,13E)-(±)-11,16-Dihydroxy-16-methyl-9-oxoprost-13-en-1-oic acid methyl ester], in data set [1] (external application of the example forms), the “time of appearance of the result” value is 20 to 40 min. Also, the systematic undesirable effects entry in data set [1] (high once only doses >1000 mcg to the clitoris or to the vagina) is “shudder, feeling of hard ship, excitement and diarrhea”. Moreover, the “misoprostol action in the presence of Polysorbate "80"” value in data set [1] (in the presence of Polysorbate "80") is on record as “important reduction or/and neutralization”. Also, the “change of misoprostol activity as a function of pH” value in data set [1] (pH of the pharmacotechnical form) is reported as “No significant changes”. Also, the “undesirable effects in the presence of a-cyclodextrine” value in data set [1] (presence of a-cyclodextrine) was “reduces the undesirable effects”. Also, in data set [1], the “local vasodilation after external application” value is on record as “strong local vasodilation”. The “solubility in water” value in data set [2] is listed as “can be dissolved in water”. In data set [3] (in vivo), the “carcinogenic or teratogenic effect” value was “hasn't been accused” and the effect on uterus result is reported as “irritation of the smooth uterine fibbers”. Also, in data set [3] (oral therapy), the “undesirable effects in oral therapy” value was “male impotence”.
Regarding `CCCCC[C@H](O)/C=C/[C@H]1[C@H](O)CC(=O)[C@@H]1CCCCCCC(=O)O` [alprostadil], in data set [4], the solubility in water was 8000 mcg/100 ml.
For `CCCCC(C)(O)C/C=C/[C@H]1[C@H](O)CC(=O)[C@@H]1CCCCCCC(=O)O` (mixture of isomers) [misoprostol acid], in data set [1], the “local vasodilation after external application” value was “Equally strong topical vasodilation”.
